Source: ChEMBL document CHEMBL1201862, “PubChem BioAssay data set” (2004)
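Test compounds were applied to cells in 96-well plates for 48 hours at 5 doses. GI50 is the concentration that inhibits growth by half.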 Active and inactive are the calls of the source. No stated cut-off is given here; in the data, active = GI50 up to about 1.1 µM and inactive = higher.

Experiments:
Assay in all cases: inhibition of tumour cell growth, NCI panel, 48 h
LOX IMVI = tested on: LOX IMVI
HCT-116 = tested on: HCT-116
HT-29 = tested on: HT-29
SNB-75 = tested on: SNB-75
SF-295 = tested on: SF-295
HCT-15 = tested on: HCT-15
U-251 = tested on: U-251
KM12 = tested on: KM12
OVCAR-3 = tested on: OVCAR-3
NCI-H226 = tested on: NCI-H226
786-0 = tested on: 786-0
UO-31 = tested on: UO-31
HL-60 = tested on: HL-60
RXF 393 = tested on: RXF 393
LXFL 529 = tested on: LXFL 529
ACHN = tested on: ACHN
MOLT-4 = tested on: MOLT-4
KM-20L2 = tested on: KM-20L2
TK-10 = tested on: TK-10
EKVX = tested on: EKVX
COLO 205 = tested on: COLO 205
IGROV-1 = tested on: IGROV-1
HOP-18 = tested on: HOP-18
SK-MEL-2 = tested on: SK-MEL-2
A549 = tested on: A549
SR = tested on: SR
UACC-62 = tested on: UACC-62
CCRF-CEM = tested on: CCRF-CEM
K562 = tested on: K562
Malme-3M = tested on: Malme-3M
SK-OV-3 = tested on: SK-OV-3
HOP-62 = tested on: HOP-62
OVCAR-8 = tested on: OVCAR-8
M14 = tested on: M14
M19-MEL = tested on: M19-MEL
RPMI-8226 = tested on: RPMI-8226
A498 = tested on: A498
SF-268 = tested on: SF-268
SK-MEL-28 = tested on: SK-MEL-28
NCI-H460 = tested on: NCI-H460
OVCAR-5 = tested on: OVCAR-5
OVCAR-4 = tested on: OVCAR-4
SN12C = tested on: SN12C
DMS-273 = tested on: DMS-273
SNB-78 = tested on: SNB-78
SNB-19 = tested on: SNB-19
HCC 2998 = tested on: HCC 2998
CAKI-1 = tested on: CAKI-1
SK-MEL-5 = tested on: SK-MEL-5
SW-620 = tested on: SW-620
DLD-1 = tested on: DLD-1
NCI-H522 = tested on: NCI-H522
HOP-92 = tested on: HOP-92
UACC-257 = tested on: UACC-257
DMS-114 = tested on: DMS-114
NCI-H23 = tested on: NCI-H23
SF-539 = tested on: SF-539

`CCOC(=O)/C=C1\Oc2ccccc2C1(C)O` (stereo not drawn) was tested, and the GI50 (LOX IMVI) was > 100 µM (inactive), the GI50 (HCT-116) was > 100 µM (inactive) and the GI50 (HT-29) was > 100 µM (inactive). The GI50 (SNB-75) was > 100 µM (inactive), the GI50 (SF-295) was > 100 µM (inactive) and the GI50 (HCT-15) was greater than 100 µM. For the same molecule, the GI50 (U-251) was > 100 µM (inactive), the GI50 (KM12) was > 100 µM (inactive) and the GI50 (OVCAR-3) was > 100 µM (inactive). The GI50 (NCI-H226) was > 100 µM (inactive), the GI50 (786-0) was > 100 µM (inactive) and the GI50 (UO-31) was > 100 µM (inactive). The GI50 (HL-60) was > 100 µM (inactive), the GI50 (RXF 393) was > 100 µM (inactive) and the GI50 (LXFL 529) was > 100 µM (inactive). The GI50 (ACHN) was > 100 µM (inactive), the GI50 (MOLT-4) was > 100 µM (inactive) and the GI50 (KM-20L2) was > 100 µM (inactive). The GI50 (TK-10) was > 100 µM (inactive), the GI50 (EKVX) was > 100 µM (inactive) and the GI50 (COLO 205) was > 100 µM (inactive). The GI50 (IGROV-1) was > 100 µM (inactive), the GI50 (HOP-18) was > 100 µM (inactive) and the GI50 (SK-MEL-2) was > 100 µM (inactive). The GI50 (A549) was > 100 µM (inactive), the GI50 (SR) was > 100 µM (inactive) and the GI50 (UACC-62) was > 100 µM (inactive). The GI50 (CCRF-CEM) was > 100 µM (inactive), the GI50 (K562) was > 100 µM (inactive) and the GI50 (Malme-3M) was > 100 µM (inactive). The GI50 (SK-OV-3) was > 100 µM (inactive), the GI50 (HOP-62) was > 100 µM (inactive) and the GI50 (OVCAR-8) was > 100 µM (inactive). The GI50 (M14) was > 100 µM (inactive), the GI50 (M19-MEL) was > 100 µM (inactive) and the GI50 (RPMI-8226) was > 100 µM (inactive). For the same molecule, the GI50 (A498) was > 100 µM (inactive), the GI50 (SF-268) was > 100 µM (inactive) and the GI50 (SK-MEL-28) was > 100 µM (inactive). For the same molecule, the GI50 (NCI-H460) was > 100 µM (inactive), the GI50 (OVCAR-5) was > 100 µM (inactive) and the GI50 (OVCAR-4) was > 100 µM (inactive). For the same molecule, the GI50 (SN12C) was > 100 µM (inactive), the GI50 (DMS-273) was > 100 µM (inactive) and the GI50 (SNB-78) was > 100 µM (inactive). The GI50 (SNB-19) was > 100 µM (inactive), the GI50 (HCC 2998) was > 100 µM (inactive) and the GI50 (CAKI-1) was > 100 µM (inactive). For the same molecule, the GI50 (SK-MEL-5) was > 100 µM (inactive), the GI50 (SW-620) was > 100 µM (inactive) and the GI50 (DLD-1) was > 100 µM (inactive). For the same molecule, the GI50 (NCI-H522) was > 100 µM (inactive), the GI50 (HOP-92) was > 100 µM (inactive) and the GI50 (UACC-257) was > 100 µM (inactive). The GI50 (DMS-114) was > 100 µM (inactive) and the GI50 (NCI-H23) was > 100 µM (inactive).
`CN(C)CCC1(C2=CCCC2)CC/C(=C\c2ccccc2)C1=O` (stereo not drawn) was tested, and the GI50 (LOX IMVI) was 17.1 µM (inactive), the GI50 (HCT-116) was 19.5 µM (inactive) and the GI50 (HT-29) was 17.1 µM (inactive). For the same molecule, the GI50 (SNB-75) was 17 µM (inactive), the GI50 (SF-295) was 19.1 µM (inactive) and the GI50 (HCT-15) was 13 µM. For the same molecule, the GI50 (U-251) was 16.6 µM (inactive), the GI50 (KM12) was 15.5 µM (inactive) and the GI50 (OVCAR-3) was 15.2 µM (inactive). For the same molecule, the GI50 (NCI-H226) was 16.9 µM (inactive), the GI50 (786-0) was 14.7 µM (inactive) and the GI50 (UO-31) was 16.6 µM (inactive). For the same molecule, the GI50 (HL-60) was 11.8 µM (inactive), the GI50 (RXF 393) was 12.5 µM (inactive) and the GI50 (LXFL 529) was 16.1 µM (inactive). For the same molecule, the GI50 (ACHN) was 15.3 µM (inactive), the GI50 (MOLT-4) was 14.3 µM (inactive) and the GI50 (KM-20L2) was 13.1 µM (inactive). The GI50 (TK-10) was 15.6 µM (inactive), the GI50 (EKVX) was 11.8 µM (inactive) and the GI50 (SF-539) was 16.6 µM (inactive). The GI50 (COLO 205) was 14.5 µM (inactive), the GI50 (IGROV-1) was 15.5 µM (inactive) and the GI50 (HOP-18) was 15.8 µM (inactive). For the same molecule, the GI50 (SK-MEL-2) was 16.4 µM (inactive), the GI50 (A549) was 20.3 µM (inactive) and the GI50 (SR) was 25.2 µM (inactive). For the same molecule, the GI50 (UACC-62) was 13.6 µM (inactive), the GI50 (CCRF-CEM) was 17.1 µM (inactive) and the GI50 (K562) was 13.8 µM (inactive). The GI50 (Malme-3M) was 15.7 µM (inactive), the GI50 (HOP-62) was 16.1 µM (inactive) and the GI50 (OVCAR-8) was 16.1 µM (inactive). The GI50 (M14) was 16.4 µM (inactive), the GI50 (M19-MEL) was 15.2 µM (inactive) and the GI50 (RPMI-8226) was 14.6 µM (inactive). The GI50 (A498) was 15.5 µM (inactive), the GI50 (SF-268) was 21.5 µM (inactive) and the GI50 (SK-MEL-28) was 21.8 µM (inactive). The GI50 (NCI-H460) was 15.9 µM (inactive), the GI50 (OVCAR-5) was 19.6 µM (inactive) and the GI50 (OVCAR-4) was 16.6 µM (inactive). The GI50 (SN12C) was 17 µM (inactive), the GI50 (DMS-273) was 15.7 µM (inactive) and the GI50 (SNB-78) was 19.7 µM (inactive). For the same molecule, the GI50 (SNB-19) was 14.7 µM (inactive), the GI50 (HCC 2998) was 15.8 µM (inactive) and the GI50 (CAKI-1) was 12.5 µM (inactive). The GI50 (SK-MEL-5) was 14.7 µM (inactive), the GI50 (SW-620) was 16.9 µM (inactive) and the GI50 (DLD-1) was 17.3 µM (inactive). For the same molecule, the GI50 (NCI-H522) was 14.1 µM (inactive), the GI50 (HOP-92) was 17.7 µM (inactive) and the GI50 (UACC-257) was 15.2 µM (inactive). The GI50 (DMS-114) was 16.1 µM (inactive) and the GI50 (NCI-H23) was 21.8 µM (inactive).
With `CCCCCC[N+](C)(C)Cc1ccc(C[N+](C)(C)CCCCCC)cc1` the GI50 (LOX IMVI) was 2.09 µM (inactive), the GI50 (HCT-116) was 3.71 µM (inactive) and the GI50 (HT-29) was 3.8 µM (inactive). For the same molecule, the GI50 (SNB-75) was 2.8 µM (inactive), the GI50 (SF-295) was 2.79 µM (inactive) and the GI50 (HCT-15) was 4 µM. The GI50 (U-251) was 2.57 µM (inactive), the GI50 (KM12) was 2.25 µM (inactive) and the GI50 (OVCAR-3) was 3.78 µM (inactive). For the same molecule, the GI50 (NCI-H226) was 3.51 µM (inactive), the GI50 (786-0) was 3.52 µM (inactive) and the GI50 (UO-31) was 8.43 µM (inactive). For the same molecule, the GI50 (HL-60) was 4.33 µM (inactive), the GI50 (RXF 393) was 0.984 µM (active) and the GI50 (LXFL 529) was 3.33 µM (inactive). For the same molecule, the GI50 (ACHN) was 3.56 µM (inactive), the GI50 (MOLT-4) was 1.54 µM (inactive) and the GI50 (KM-20L2) was 6.56 µM (inactive). The GI50 (TK-10) was 5.64 µM (inactive), the GI50 (EKVX) was 3.94 µM (inactive) and the GI50 (COLO 205) was 1.82 µM (inactive). For the same molecule, the GI50 (IGROV-1) was 2.54 µM (inactive), the GI50 (HOP-18) was 4.69 µM (inactive) and the GI50 (SK-MEL-2) was 2.14 µM (inactive). For the same molecule, the GI50 (A549) was 3.36 µM (inactive), the GI50 (SR) was 2.19 µM (inactive) and the GI50 (UACC-62) was 8.32 µM (inactive). For the same molecule, the GI50 (CCRF-CEM) was 2.73 µM (inactive), the GI50 (K562) was 1.61 µM (inactive) and the GI50 (Malme-3M) was 7.76 µM (inactive). The GI50 (SK-OV-3) was 9.66 µM (inactive), the GI50 (HOP-62) was 3.05 µM (inactive) and the GI50 (OVCAR-8) was 3.1 µM (inactive). The GI50 (M14) was 3.48 µM (inactive), the GI50 (M19-MEL) was 1.94 µM (inactive) and the GI50 (RPMI-8226) was 4.23 µM (inactive). For the same molecule, the GI50 (A498) was 11.2 µM (inactive), the GI50 (SF-268) was 2.79 µM (inactive) and the GI50 (SK-MEL-28) was 4.95 µM (inactive). The GI50 (NCI-H460) was 2.64 µM (inactive), the GI50 (OVCAR-5) was 10.9 µM (inactive) and the GI50 (OVCAR-4) was 4.58 µM (inactive). For the same molecule, the GI50 (SN12C) was 3.49 µM (inactive), the GI50 (DMS-273) was 1.83 µM (inactive) and the GI50 (SNB-78) was 1.16 µM (inactive). The GI50 (SNB-19) was 5.2 µM (inactive), the GI50 (HCC 2998) was 3.84 µM (inactive) and the GI50 (CAKI-1) was 3.19 µM (inactive). For the same molecule, the GI50 (SK-MEL-5) was 6.64 µM (inactive), the GI50 (SW-620) was 4.84 µM (inactive) and the GI50 (DLD-1) was 4.42 µM (inactive). For the same molecule, the GI50 (NCI-H522) was 1.74 µM (inactive), the GI50 (HOP-92) was 2.97 µM (inactive) and the GI50 (UACC-257) was 10.8 µM (inactive). For the same molecule, the GI50 (DMS-114) was 1.75 µM (inactive) and the GI50 (NCI-H23) was 1.82 µM (inactive).
